According to patent US7939562B2, “Amphiphilic derivatives for the production of vesicles, micelles and complexants, and precursors thereof” (Ben-Gurion University of The Negev Research and Development …, priority 2001, dated 2011):

Columns and labels:
[1] = test system: bronchial epithelial cells; test: Uptake of complexed DNA plasmid by cells (confocal microscope); type: cell-based; details: DNA plasmid complexed with the amphiphile, compared to non-complexed DNA
Experimental: Purified Derivative 4 was used to complex with a DNA plasmid (purchased from Sigma Chemicals, 5 ng/microliter, stained in FITC; ULSIS Alexa Fluor® 488 Nucleic acid labeling kit) or rhodamine. The complexation was achieved by mixing the amphiphilic Derivative 4 (200 microliters containing […] of the compound) with […] of the DNA sample and letting it shake gently for a short period of time. The mixture is not sonicated to prevent vesicle formation in which the DNA is encapsulated. The sample was then incubated in a culture containing bronchial epithelial cells.

[2] = test system: bronchial epithelial cells; test: Uptake of vesicle-encapsulated 14C-methylated albumin by cells (radioactivity); type: cell-based; details: 14C-methylated albumin encapsulated in vesicles, compared with non-encapsulated albumin
Experimental: Derivative 10 was made into vesicles according to Example 41. […] The same method was used to encapsulate ^14C-methylated albumin (purchased from Sigma Chemicals) by adding 0.2 mg of the tagged albumin. The vesicles were purified by filtration and the presence of radioactivity in the purified sample indicated encapsulation.

Vesicle size by TEM = type: physicochemical; design: unit not given here; details: bilayer vesicles
Experimental: Two main methods were used to prepare the vesicles: In method (1), 100-200 μl of the amphiphilic derivative dissolved in methanol was injected into 2-4 ml of an aqueous solution which contained the compound to be encapsulated. The mixture was sonicated in a bath sonicator (Branson 2510) for a short (1,2,5,10 min) or long (60 min) period, depending on the desired vesicle size (dozen or hundred nanometer) and uniformity. In method (2), the amphiphilic derivative dissolved in methanol (250-1000 μl) was added to a 50-ml round-bottom flask, the solvent was removed under reduced pressure by a rotary evaporator and a thin oily film was formed on the flask bottom. An aqueous solution containing the compound desired to encapsulate (1-4 ml) was added to the flask and the mixture was sonicated in a bath sonicator for 1-5 min at 60° C.
TEM (transmission electron microscopy) experiments were carried out using negative staining technique, employing saturated uranyl acetate solution (after centrifuge). The grid was immersed in the vesicle solution for 1.5 minutes and then was stained in the uranyl acetate solution for 1.5 min. The grid (300 mesh copper Formvar/carbon) was then dried at room temperature on filter paper. […]
Derivative 10 was made into vesicles according to Example 41. […] The vesicles were purified by filtration and the presence of radioactivity in the purified sample indicated encapsulation.

vesicle size (Vesicle size by TEM)	Compound	uptake of DNA by the cells [1]	uptake of the albumin by the cells [2]
	CCCCCC(OC(=O)CN(CCCN)CCCCN)C(O)CCCCC(=O)OC (stereo not drawn) [Derivative 4]	significantly greater uptake of DNA	
350	CCCCCCCCCCCC[N+](C)(C)CC(=O)OC(CCCCC)C(O)C/C=C/CC(=O)NCCNC(=O)C/C=C/CC(O)C(CCCCC)OC(=O)C[N+](C)(C)CCCCCCCCCCCC (stereo not drawn) [Derivative 10]		significantly greater uptake of the albumin
